Source: article PMC5493479 (Methods (San Diego, Calif.), 2016)

Target: T1, HisRS (Histidyl-tRNA synthetase) (Escherichia coli, UniProt P60906)
T1 sequence (P60906 2-424): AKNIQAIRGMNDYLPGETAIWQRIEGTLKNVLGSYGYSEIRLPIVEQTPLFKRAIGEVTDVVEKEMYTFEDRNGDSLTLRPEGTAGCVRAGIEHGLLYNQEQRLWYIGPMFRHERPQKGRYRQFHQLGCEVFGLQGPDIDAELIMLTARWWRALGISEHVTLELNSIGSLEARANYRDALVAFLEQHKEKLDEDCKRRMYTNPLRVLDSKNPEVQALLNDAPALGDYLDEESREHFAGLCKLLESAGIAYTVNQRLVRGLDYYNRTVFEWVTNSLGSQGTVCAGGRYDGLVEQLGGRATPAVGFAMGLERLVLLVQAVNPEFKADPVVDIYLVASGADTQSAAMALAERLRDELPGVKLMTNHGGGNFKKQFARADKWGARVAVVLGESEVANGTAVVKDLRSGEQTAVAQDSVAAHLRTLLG
Assay: differential scanning fluorimetry
Format: binding
Conditions: 10 mM ATP; apo Tm 53.4 ± 1.1 °C; 10 uM enzyme, 20 mM HEPES pH 7.5, 150 mM KCl

Nc1ncnc2c1ncn2[C@@H]1O[C@H](COP(=O)(O)OP(=O)(O)OP(=O)(O)O)[C@@H](O)[C@H]1O [ATP]
ATP 10 mM Tm (°C): 55.8 ± 0.5 °C
